# Biological target: T1, rat vas deferens P2X receptor (Rattus norvegicus, UniProt P47824)
# T1 construct: cRNA in Xenopus oocytes; stably transfected CHO cells
# T1 sequence (P47824 1-399): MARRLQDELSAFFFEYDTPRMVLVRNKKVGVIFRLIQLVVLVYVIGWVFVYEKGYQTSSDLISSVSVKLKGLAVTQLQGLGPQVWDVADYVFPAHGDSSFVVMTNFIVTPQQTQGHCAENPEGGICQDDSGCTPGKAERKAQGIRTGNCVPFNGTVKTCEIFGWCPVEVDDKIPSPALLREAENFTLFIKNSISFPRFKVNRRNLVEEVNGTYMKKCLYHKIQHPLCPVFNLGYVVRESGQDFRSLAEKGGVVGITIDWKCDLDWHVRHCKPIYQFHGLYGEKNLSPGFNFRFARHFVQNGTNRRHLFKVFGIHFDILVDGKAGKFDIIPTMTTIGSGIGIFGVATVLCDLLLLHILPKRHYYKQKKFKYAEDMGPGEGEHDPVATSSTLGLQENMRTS
# Test: ATP-evoked currents, rat vas deferens P2X receptor clone in oocytes
# Type: cell-based
# Conditions: ATP (>1 μM), second application 10 mins after the first
# Method: 50 nl (200 ng) of RNA was injected into defolliculated Xenopus oocytes. After incubation for 2-6 days at 18° C., the oocytes were assayed for ATP-evoked currents by a two-electrode voltage clamp ([…]™); one electrode is to hold the voltage constant (at -100 mV), and the other is to measure the currents. […] Microelectrodes (0.5-2 M.OMEGA.) were filled with 3M KCl.
smiles,measurement,value
"Nc1ncnc2c1ncn2[C@@H]1O[C@H](COP(=O)([O-])OP(=O)([O-])OP(=O)([O-])[O-])[C@@H](O)[C@H]1O.[Mg+2].[Mg+2] [ATP, adenosine 5'-triphosphate magnesium salt]","inward current evoked by second application, of the initial peak amplitude",~ 50%
